Laboratory results taken from ChEMBL document CHEMBL3994622, “Design and synthesis of new RAF kinase-inhibiting antiproliferative quinoline derivatives. Part 2: Diarylurea derivatives” (Eur J Med Chem, 2017).

Key:
Type in all cases: functional
[1] = test system: T47D; assay: Growth inhibition of human T47D cells assessed as cell growth at 0.003 uM incubated for 48 hrs by sulforhodamine B assay relative to control; settings: read-out: Activity
[2] = test system: COLO 205; assay: Growth inhibition of human COLO205 cells assessed as cell growth at 0.03 uM incubated for 48 hrs by sulforhodamine B assay relative to control; settings: COLO 205, 48 h, read-out: Activity
[3] = test system: UO-31; assay: Growth inhibition of human UO31 cells assessed as cell growth at 0.03 uM incubated for 48 hrs by sulforhodamine B assay relative to control; settings: UO-31, 48 h, read-out: Activity
[4] = test system: DU-145; assay: Growth inhibition of human DU145 cells assessed as cell growth at 0.03 uM incubated for 48 hrs by sulforhodamine B assay relative to control; settings: DU-145, 48 h, read-out: Activity
[5] = test system: K562; assay: Growth inhibition of human K562 cells assessed as cell growth at 0.3 uM incubated for 48 hrs by sulforhodamine B assay relative to control; settings: K562, 48 h, read-out: Activity
[6] = test system: A498; assay: Growth inhibition of human A498 cells assessed as cell growth at 0.3 uM incubated for 48 hrs by sulforhodamine B assay relative to control; settings: A498, 48 h, read-out: Activity
[7] = test system: SN12C; assay: Growth inhibition of human SN12C cells assessed as cell growth at 0.3 uM incubated for 48 hrs by sulforhodamine B assay relative to control; settings: read-out: Activity
[8] = test system: HOP-92; assay: Growth inhibition of human HOP92 cells assessed as cell growth at 3 uM incubated for 48 hrs by sulforhodamine B assay relative to control; settings: HOP-92, 48 h, read-out: Activity
[9] = test system: NCI-H226; assay: Growth inhibition of human NCI-H226 cells assessed as cell growth at 3 uM incubated for 48 hrs by sulforhodamine B assay relative to control; settings: NCI-H226, 48 h, read-out: Activity
[10] = test system: NCI-H460; assay: Growth inhibition of human NCI-H460 cells assessed as cell growth at 3 uM incubated for 48 hrs by sulforhodamine B assay relative to control; settings: NCI-H460, 48 h, read-out: Activity
[11] = test system: RXF 393; assay: Growth inhibition of human RXF393 cells assessed as cell growth at 3 uM incubated for 48 hrs by sulforhodamine B assay relative to control; settings: RXF 393, 48 h, read-out: Activity
[12] = test system: TK-10; assay: Growth inhibition of human TK10 cells assessed as cell growth at 3 uM incubated for 48 hrs by sulforhodamine B assay relative to control; settings: TK-10, 48 h, read-out: Activity
[13] = test system: RPMI-8226; assay: Growth inhibition of human RPMI8226 cells assessed as cell growth at 30 uM incubated for 48 hrs by sulforhodamine B assay relative to control; settings: RPMI-8226, 48 h, read-out: Activity
[14] = test system: SNB-19; assay: Growth inhibition of human SNB19 cells assessed as cell growth at 30 uM incubated for 48 hrs by sulforhodamine B assay relative to control; settings: SNB-19, 48 h, read-out: Activity
[15] = test system: SK-MEL-28; assay: Growth inhibition of human SK-MEL-28 cells assessed as cell growth at 30 uM incubated for 48 hrs by sulforhodamine B assay relative to control; settings: SK-MEL-28, 48 h, read-out: Activity
[16] = test system: NCI-H322M; assay: Growth inhibition of human NCI-H322M cells assessed as cell growth at 0.01 uM incubated for 48 hrs by sulforhodamine B assay relative to control; settings: read-out: Activity
[17] = test system: OVCAR-5; assay: Growth inhibition of human OVCAR5 cells assessed as cell growth at 0.01 uM incubated for 48 hrs by sulforhodamine B assay relative to control; settings: OVCAR-5, 48 h, read-out: Activity
[18] = test system: MOLT-4; assay: Growth inhibition of human MOLT4 cells assessed as cell growth at 0.1 uM incubated for 48 hrs by sulforhodamine B assay relative to control; settings: MOLT-4, 48 h, read-out: Activity
[19] = test system: SR; assay: Growth inhibition of human SR cells assessed as cell growth at 0.1 uM incubated for 48 hrs by sulforhodamine B assay relative to control; settings: read-out: Activity
[20] = test system: HCT-116; assay: Growth inhibition of human HCT116 cells assessed as cell growth at 0.1 uM incubated for 48 hrs by sulforhodamine B assay relative to control; settings: HCT-116, 48 h, read-out: Activity
[21] = test system: U-251; assay: Growth inhibition of human U251 cells assessed as cell growth at 0.1 uM incubated for 48 hrs by sulforhodamine B assay relative to control; settings: U-251, 48 h, read-out: Activity
[22] = test system: UO-31; assay: Growth inhibition of human UO31 cells assessed as cell growth at 0.1 uM incubated for 48 hrs by sulforhodamine B assay relative to control; settings: UO-31, 48 h, read-out: Activity
[23] = test system: PC-3; assay: Growth inhibition of human PC3 cells assessed as cell growth at 0.1 uM incubated for 48 hrs by sulforhodamine B assay relative to control; settings: PC-3, 48 h, read-out: Activity
[24] = test system: EKVX; assay: Growth inhibition of human EKVX cells assessed as cell growth at 1 uM incubated for 48 hrs by sulforhodamine B assay relative to control; settings: read-out: Activity
[25] = test system: DU-145; assay: Growth inhibition of human DU145 cells assessed as cell growth at 1 uM incubated for 48 hrs by sulforhodamine B assay relative to control; settings: DU-145, 48 h, read-out: Activity
[26] = test system: NCI-H322M; assay: Growth inhibition of human NCI-H322M cells assessed as cell growth at 10 uM incubated for 48 hrs by sulforhodamine B assay relative to control; settings: read-out: Activity
[27] = test system: MDA-MB-435; assay: Growth inhibition of human MDA-MB-435 cells assessed as cell growth at 10 uM incubated for 48 hrs by sulforhodamine B assay relative to control; settings: MDA-MB-435, 48 h, read-out: Activity
[28] = test system: OVCAR-3; assay: Growth inhibition of human OVCAR3 cells assessed as cell growth at 10 uM incubated for 48 hrs by sulforhodamine B assay relative to control; settings: OVCAR-3, 48 h, read-out: Activity
[29] = test system: MDA-MB-231; assay: Growth inhibition of human MDA-MB-231 cells assessed as cell growth at 10 uM incubated for 48 hrs by sulforhodamine B assay relative to control; settings: MDA-MB-231, 48 h, read-out: Activity
[30] = test system: BT-549; assay: Growth inhibition of human BT549 cells assessed as cell growth at 10 uM incubated for 48 hrs by sulforhodamine B assay relative to control; settings: BT-549, 48 h, read-out: Activity
[31] = test system: NCI-H522; assay: Growth inhibition of human NCI-H522 cells assessed as cell growth at 100 uM incubated for 48 hrs by sulforhodamine B assay relative to control; settings: NCI-H522, 48 h, read-out: Activity
[32] = test system: SK-MEL-5; assay: Growth inhibition of human SK-MEL-5 cells assessed as cell growth at 100 uM incubated for 48 hrs by sulforhodamine B assay relative to control; settings: SK-MEL-5, 48 h, read-out: Activity
[33] = test system: A498; assay: Growth inhibition of human A498 cells assessed as cell growth at 100 uM incubated for 48 hrs by sulforhodamine B assay relative to control; settings: A498, 48 h, read-out: Activity
[34] = test system: ACHN; assay: Growth inhibition of human ACHN cells assessed as cell growth at 100 uM incubated for 48 hrs by sulforhodamine B assay relative to control; settings: read-out: Activity

Row | Structure (SMILES) | growth at 0.003 µM [1] | growth at 0.03 µM [2] | growth at 0.03 µM [3] | growth at 0.03 µM [4] | growth at 0.3 µM [5] | growth at 0.3 µM [6] | growth at 0.3 µM [7] | growth at 3 µM [8] | growth at 3 µM [9] | growth at 3 µM [10] | growth at 3 µM [11] | growth at 3 µM [12] | growth at 30 µM [13] | growth at 30 µM [14] | growth at 30 µM [15] | growth at 0.01 µM [16] | growth at 0.01 µM [17] | growth at 0.1 µM [18] | growth at 0.1 µM [19] | growth at 0.1 µM [20] | further results
1 | COc1cc2cc(Oc3ccc(NC(=O)Nc4ccc(Cl)c(C(F)(F)F)c4)cc3)c(C)nc2cc1OC | 94% | 94% | 89% | 96% | 93% | 78% | 94% | -21% | 11% | 3% | 10% | 18% | -47% | -87% | -92% | – | – | – | – | – | –
2 | COc1cc2cc(Oc3ccc(NC(=O)Nc4cc(C(F)(F)F)cc(C(F)(F)F)c4)cc3)c(C)nc2cc1OC | – | – | – | – | – | – | – | – | – | – | – | – | – | – | – | 94% | 87% | 104% | 97% | 106% | growth at 0.1 µM [21]: 100%; growth at 0.1 µM [22]: 73%; growth at 0.1 µM [23]: 89%; growth at 1 µM [24]: 50%; growth at 1 µM [25]: 82%; growth at 10 µM [26]: -85%; growth at 10 µM [27]: -49%; growth at 10 µM [28]: -90%; growth at 10 µM [29]: -83%; growth at 10 µM [30]: -64%; growth at 100 µM [31]: -79%; growth at 100 µM [32]: -93%; growth at 100 µM [33]: -93%; growth at 100 µM [34]: -89%
3 | COc1cc2cc(Oc3ccc(NC(=O)Nc4ccc(Cl)c(Cl)c4)cc3)c(C)nc2cc1OC | – | – | – | – | – | – | – | – | – | – | – | – | – | – | – | 100% | 103% | 109% | 108% | 102% | growth at 0.1 µM [21]: 93%; growth at 0.1 µM [22]: 101%; growth at 0.1 µM [23]: 95%; growth at 1 µM [24]: 81%; growth at 1 µM [25]: 102%; growth at 10 µM [26]: 47%; growth at 10 µM [27]: 13%; growth at 10 µM [28]: -25%; growth at 10 µM [29]: 8%; growth at 10 µM [30]: 5%; growth at 100 µM [31]: -63%; growth at 100 µM [32]: -93%; growth at 100 µM [33]: -56%; growth at 100 µM [34]: -61%
4 | Cc1nc2cc(O)c(O)cc2cc1Oc1ccc(NC(=O)Nc2ccc(Cl)c(Cl)c2)cc1 | 102% | 108% | 98% | 111% | 123% | 80% | 105% | 48% | 102% | 96% | 86% | 98% | -22% | 2% | -3% | – | – | – | – | – | –
